Here are results for 29 compounds from ChEMBL document CHEMBL3856217, “A series of pyrido[2,3-b]pyrazin-3(4H)-one derivatives as aldose reductase inhibitors with antioxidant activity” (Eur J Med Chem, 2016).

Usually IC50 stands for the point on the concentration scale where inhibition reaches its midpoint. A higher IC50 goes with weaker potency.

Assay [1] is described as follows: Inhibition of rat lens ALR2 using D,L-glyceraldehyde as substrate preincubated for 10 mins followed by substrate addition measured for 5 mins.
Assay [2] is described as follows: Antioxidant activity assessed as DPPH free radical scavenging activity at 100 uM after 30 mins by UV-spectrophotometric method relative to control. It counts as functional. (In general: DPPH is a stable violet radical that fades when it is reduced.)
A short description of assay [3]: Antioxidant activity assessed as DPPH free radical scavenging activity at 50 uM after 30 mins by UV-spectrophotometric method relative to control. It counts as functional.
A short description of assay [4]: Antioxidant activity assessed as DPPH free radical scavenging activity at 10 uM after 30 mins by UV-spectrophotometric method relative to control. It counts as functional.

Molecules are shown by their SMILES.

In turn, `O=C(O)Cn1c(=O)c(-c2ccccc2)nc2cccnc21` yielded an IC50 in assay [1] of 9940 nM. This counts as single-digit micromolar.
Turning to `O=C(O)Cn1c(=O)c(CCc2ccc(O)cc2)nc2cccnc21`, in assay [2], the Activity is 35.2%. The IC50 in assay [1] was 918 nM.
In the same order, the values of `O=C(O)Cn1c(=O)c(-c2ccc(O)cc2O)nc2cc(Br)cnc21` are 43.5% and 24 nM.
Consider `O=C(O)Cn1c(=O)c(/C=C/c2ccc(O)c(O)c2)nc2cc(Br)cnc21`, for which the Activity in assay [3] was 82.4%; in assay [4] it was 70.8%; in assay [2] it was 95.8%. For the same compound, the IC50 in assay [1] came to 108 nM.
On to `O=C(O)Cn1c(=O)c(-c2cc(O)cc(O)c2)nc2cccnc21`, for which the Activity in assay [2] is 30.3%. In assay [1], this compound showed a concentration for half-maximal inhibition (IC50) of 296 nM.
On to `COc1cc(/C=C/c2nc3cc(Br)cnc3n(CC(=O)O)c2=O)ccc1O`, for which the values for the Activity in assay [3], in assay [4] and in assay [2] were 75.4%, 59.6% and 90.1%, respectively. The compound further displayed an IC50 in assay [1] of 389 nM.
In the same order, the values of `O=C(O)Cn1c(=O)c(-c2cc(O)c(O)c(O)c2)nc2cccnc21` are 62.4%, 34.6%, 70.7% and 179 nM.
Consider `COc1cc(-c2nc3cccnc3n(CC(=O)O)c2=O)cc(O)c1OC`, for which the Activity in assay [2] is 20.5%. In assay [1], this compound came in with an IC50 of 578 nM.
Take `COc1cc(/C=C/c2nc3cccnc3n(CC(=O)O)c2=O)ccc1O`: the Activity in assay [3] is 75.6%; in assay [4], 48.6%; in assay [2], 85.5%. In assay [1], the midpoint of inhibition, the IC50, lay at 307 nM.
As for `COc1ccc(-c2nc3cccnc3n(CC(=O)O)c2=O)cc1O`, in assay [2], the Activity worked out at 32.1%. In addition, in assay [1], the IC50 was determined as 2210 nM.
For `COc1cc(CCc2nc3cccnc3n(CC(=O)O)c2=O)ccc1O`, the Activity in assay [3] is 25.8%; in assay [2], 40.1%. The compound also registered an IC50 in assay [1] of 689 nM.
Take `COc1ccc(/C=C/c2nc3cccnc3n(CC(=O)O)c2=O)cc1`: the Activity in assay [3] is 39.1%; in assay [2], 52.8%. In addition, in assay [1], inhibition was half-maximal at 1520 nM (IC50).
In the same order, the values of `O=C(O)Cn1c(=O)c(/C=C/c2ccc(O)cc2)nc2cc(Br)cnc21` are 43.8%, 61.2% and 29 nM.
For the compound `O=C(O)Cn1c(=O)c(/C=C/c2ccc(F)cc2)nc2cccnc21`, the Activity in assay [2] was 42.7%. For the same compound, in assay [1], it took 126 nM to reach half-maximal inhibition (IC50).
On to `O=C(O)Cn1c(=O)c(/C=C/c2ccc(O)cc2)nc2cc(Cl)cnc21`, for which the figures for the Activity in assay [3] and in assay [2] were 47.5% and 66.2%, respectively. The compound further gave an IC50 in assay [1] of 13 nM.
As for `O=C(O)Cn1c(=O)c(-c2ccc(O)cc2O)nc2cccnc21`, the Activity in assay [2] was determined as 37.7%. In assay [1], this compound gave an IC50 of 185 nM.
In the same order, the values of `COc1c(O)cc(-c2nc3cccnc3n(CC(=O)O)c2=O)cc1O` are 45.6% and 319 nM.
As for `O=C(O)Cn1c(=O)c(/C=C/c2ccc(O)c(O)c2)nc2cc(Cl)cnc21`, the Activity in assay [3] was found to be 87.4%; in assay [4] it was 74.7%; in assay [2] it was 97.1%. Further, it took 36 nM to reach half-maximal inhibition in assay [1] (IC50).
In the same order, the values of `O=C(O)Cn1c(=O)c(-c2c(O)cc(O)cc2O)nc2cccnc21` are 70.9%, 40.2%, 83.5% and 68 nM.
As to `Cc1c(C)c2c(c(C)c1O)CCC(C)(C(=O)O)O2` (configuration not stated), the Activity is 89.6% in assay [3], 78.2% in assay [4] and 96.2% in assay [2].
Regarding `O=C(O)Cn1c(=O)c(/C=C/c2ccc(O)cc2)nc2cccnc21`, the Activity in assay [3] is 44.5%; in assay [2], 57.6%. The IC50 in assay [1] is 35 nM.
As to `O=C(O)Cn1c(=O)c(/C=C/c2ccc(O)c(O)c2)nc2cccnc21`, the Activity in assay [3] is 78.4%; in assay [4], 55.1%; in assay [2], 89.1%. The IC50 in assay [1] came to 165 nM.
In the same order, the values of `O=C(O)Cn1c(=O)c(-c2c(O)cc(O)cc2O)nc2cc(Cl)cnc21` are 69.8%, 41.3%, 85.2% and 18 nM.
With `O=C(O)Cn1c(=O)c(-c2ccc(O)cc2)nc2cccnc21`, the Activity in assay [2] came to 6.5%. For the same compound, in assay [1], the IC50 was 1030 nM.
The compound `COc1cc(O)cc(-c2nc3cccnc3n(CC(=O)O)c2=O)c1` came in with an IC50 in assay [1] of 5210 nM. This counts as single-digit micromolar.
As to `O=C(O)Cn1c(=O)c(-c2ccc(O)cc2O)nc2cc(Cl)cnc21`, the Activity in assay [2] turned out to be 41.5%. Besides, the IC50 in assay [1] amounted to 9 nM.
On to `O=C(O)Cn1c(=O)c(-c2ccc(O)c(O)c2)nc2cccnc21`, for which, in assay [2], the Activity came out at 50.5%. For the same compound, in assay [1], the IC50 is 831 nM.
Regarding `O=C(O)Cn1c(=O)c(/C=C/c2ccccc2)nc2cccnc21`, the Activity in assay [3] is 64.1%; in assay [4], 35.5%; in assay [2], 78.9%. This compound also returned an IC50 in assay [1] of 895 nM.
In the same order, the values of `COc1cc(/C=C/c2nc3cc(Cl)cnc3n(CC(=O)O)c2=O)ccc1O` are 81.8%, 62.3%, 94.9% and 87 nM.
